Measured values published in patent publication US10766855B2, “Hydroxamate triterpenoid derivatives” (VIVACELL BIOTECHNOLOGY ESPANA S.L., priority 2016, dated 2020).
Read-outs that look alike come from different tables or passages of the source.

What was measured:
Type in all cases: cell-based
[1] = system: STAT3; assay: STAT3 inhibition in HeLa-STAT3-Luc cells stimulated with IFN-γ; settings: for IC50: IFN-γ 25 IU/ml, 6 h
Protocol: (§1) The HeLa-STAT3-luc cells stably transfected with the plasmid 4×M67 pTATA TK-Luc. Cells (20×10^3 cells/ml) were seeded in 96-well plates, treated with increasing concentrations of the compounds II to XIV, and of comparative compound CDDO-Me, for 15 min and then stimulated with IFN-γ 25 IU/ml. After 6 h the luciferase activity in the cell lysates was measured as indicated above. […] The HaCaT-ARE-Luc cell line contains the Nqo1 Antioxidant Response Element (ARE)-Luc reporter plasmid. ARE is activated by all members of the CNC family of factors (Nrf1, Nrf2, Nrf3 and p45 NF-E2). The cells were cultivated in 96-well plates at the concentration of 25×10^3 cells/well in a CO2 incubator at 37° C. For induction of Nrf2 activation the cells were treated with increasing concentrations of the compounds II to XV, and of comparative compound CDDO-Me, for 6 h. As a positive control the cells were treated with 0.02 mM of the antioxidant Tert-butyl-hydroquinone (TBHQ). Luciferase activity in the cell lysates was measured as indicated above and the EC50 calculated (Table III). The CHO-TGR5-CRE-Luc cells stably transfected with the pTGR5 and CRE-Luc. The CRE-responsive luciferase construct encodes the firefly luciferase reporter gene under the control of a minimal (m)CMV promoter and tandem repeats of the CRE transcriptional response element (TRE) and is useful to monitor cAMP signaling pathways activated by TGR5 agonists. Cells (1×10^4/well) were seeded in 96-well plates, treated with increasing concentrations of the compounds II to XV and CDDO-Me, for 6 h. As a positive control the cells were treated with 10 μM of LCA (lithocholic acid). Luciferase activity in the cell lysates was measured as indicated above and the EC50 calculated (Table III).

[2] = system: HIF-1α; assay: HIF-1α transactivation assay in NIH-3T3-EPO-Luc fibroblast cells; settings: for Efficacy HIF-1α (IRA coefficient) / EC50: 6 h stimulation; for Efficacy HIF-1α (IRA coefficient): relative to 150 μM DFX; for EC50: read-out: Potency EC50 HIF-1α
Protocol: To investigate the biological activities of the different compounds, HIF-1α transactivation assays were performed either in NIH-3T3-EPO-Luc cells (Table II) or in HaCaT-EPO-luc cells (FIG. 2). The NIH3T3-EPO-luc and HaCaT-EPO-luc cells have been stably transfected with the plasmid Epo-Luc plasmid. The EPO-Hypoxia Response Element (HRE)-luciferase reporter plasmid contains three copies of the HRE consensus sequence from the promoter of the erythropoietin gene fused to the luciferase gene. NIH3T3-EPO-luc cells were maintained at 37° C. in a humidified atmosphere containing 5% CO2 in DMEM supplemented with 10% fetal calf serum (FBS), and 1% (v/v) penicillin/streptomycin. DFX was purchased from Sigma-Aldrich (USA). Cells (1×10^4/well in 96 well plates) were seeded the day before the assay. […] After six hours of stimulation the cells were lysed in 25 mM Tris-phosphate pH 7.8, 8 mM MgCl2, 1 mM DTT, 1% Triton X-100, and 7% glycerol during 15 min at RT in a horizontal shaker. Luciferase activity is measured using a microplate luminometer (Berthold) following the instructions of the luciferase assay kit (Promega, Madison, Wis., USA).

[3] = system: Nrf2; assay: Nrf2 activation/inhibition in HaCaT-ARE-Luc cells; settings: for EC50: 6 h
Protocol: as §1

[4] = system: NF-κB; assay: NF-κB inhibition in NIH-3T3-KBF-Luc cells stimulated with TNFα; settings: for IC50: TNFα 30 ng/ml, 6 h
Protocol: To further study the target selectivity of the compounds described in the present invention the effect of the natural triterpenoids (OA; BA, UA, and MA), compounds II to XV of Formula (I) disclosed in present invention, and of comparative compound CDDO-Me on NF-κB inhibition, STAT-3 inhibition, Nrf2 activation and TGR5 activation was analyzed. For this study cell lines NIH-3T3-KBF-Luc, HeLa-STAT3-Luc, HaCaT-ARE-Luc and CHO-TGR5-CRE-luc were used respectively. The NIH3T3-KBF-Luc cell line stably transfected with the plasmid KBF-Luc plasmid, which contains three copies of NF-κB binding site (from major histocompatibility complex promoter), fused to a minimal simian virus 40 promoter driving the luciferase gene. Cells (1×10^4/well) were seeded in 96-well plates, treated with increasing concentrations of the compounds II to XV for 15 min and then stimulated with 30 ng/ml TNFα. After 6 h the luciferase activity in the cell lysates was measured as indicated above.

[5] = system: Nrf2; assay: Nrf2 activation/inhibition in HaCaT-ARE-Luc cells
[6] = system: TGR5; assay: TGR5 activation in CHO-TGR5-CRE-Luc cells; settings: for EC50: 6 h
Protocol: The CHO-TGR5-CRE-Luc cells stably transfected with the pTGR5 and CRE-Luc. […] As a positive control the cells were treated with 10 μM of LCA (lithocholic acid). Luciferase activity in the cell lysates was measured as indicated above and the EC50 calculated (Table III).

## CC1(C)CC[C@]2(C(=O)NO)CC[C@]3(C)C(=CC[C@@H]4[C@@]5(C)C=C(O)C(=O)C(C)(C)[C@@H]5CC[C@]43C)[C@@H]2C1 [Compound XV, 2-Hydroxy-3-oxo-oleana-1,12-dien-N-hydroxy-28-amide]
[1]
  IC50: > 50 µM
[2]
  Efficacy HIF-1α (IRA coefficient): 0.06
[2]; Fibroblast
  EC50: 11.2 µM
[3]
  EC50: > 50 µM
[4]
  IC50: > 50 µM
[5]
  IC50: > 50 µM
[6]
  EC50: > 50 µM

## CC1(C)CC[C@]2(C(=O)O)CC[C@]3(C)C(=CC[C@@H]4[C@@]5(C)C[C@@H](O)[C@H](O)C(C)(C)[C@@H]5CC[C@]43C)[C@@H]2C1 [Maslinic acid, reference compound]
[1]
  IC50: > 50 µM
[2]
  activation of the EPO promoter as a surrogate marker of HIF-1α pathway activation (in words): None of the natural triterpenoids
[2]; Fibroblast
  EC50: > 50 µM
[3]
  EC50: > 50 µM
[4]
  IC50: > 50 µM
[5]
  IC50: > 50 µM
[6]
  EC50: 10.2 µM

## COC(=O)[C@]12CCC(C)(C)C[C@H]1[C@H]1C(=O)C=C3[C@@]4(C)C=C(C#N)C(=O)C(C)(C)[C@@H]4CC[C@@]3(C)[C@]1(C)CC2 [CDDO—Me, 2-Cyano-3,12-dioxo-oleana-1,9(11)-dien-28-oic acid methyl ester, reference compound]
[1]
  inhibition of the STAT3 pathway induced by IFNγ (in words): clearly inhibited
  IC50: 2.38 µM
[2]
  activation of the EPO promoter as a surrogate marker of HIF-1α pathway activation (in words): does not result in activation of the HIF pathway
[2]; Fibroblast
  EC50: > 50 µM
[3]
  activation of the Nrf2 pathway (in words): activated the Nrf2 pathway
  EC50: 40.9 µM
[4]
  inhibition of the NF-κB pathway induced by TNFα (in words): clearly inhibited
  IC50: 1.2 µM
[5]
  IC50: 0.06 µM
[6]
  EC50: > 50 µM

## CC1(C)CC[C@]2(C(=O)NO)CC[C@]3(C)C(=CC[C@@H]4[C@@]5(C)CC/C(=N\O)C(C)(C)[C@@H]5CC[C@]43C)[C@@H]2C1 [Compound III, 3-Hydroxyimino-N-hydroxy-olean-12-en-28-amide]
[1]
  IC50: > 50 µM
[2]
  Efficacy HIF-1α (IRA coefficient): 0.43
[2]; Fibroblast
  EC50: 3.83 µM
[3]
  EC50: 23.9 µM
[4]
  IC50: > 50 µM
[5]
  IC50: > 50 µM
[6]
  EC50: > 50 µM

## C=C(C)[C@@H]1CC[C@]2(C(=O)NO)CC[C@]3(C)[C@H](CC[C@@H]4[C@@]5(C)CC/C(=N\O)C(C)(C)[C@@H]5CC[C@]43C)[C@@H]12 [Compound XI, 3-Hydroxyimino-N-hydroxy-lup-20(29)-en-28-amide]
[1]
  IC50: > 50 µM
[2]
  Efficacy HIF-1α (IRA coefficient): 0.31
[2]; Fibroblast
  EC50: 2.58 µM
[3]
  EC50: > 50 µM
[4]
  IC50: > 50 µM
[5]
  IC50: > 50 µM
[6]
  agonistic TGR5 activity (in words): showed agonistic TGR5 activity
  EC50: 17.5 µM

## C=C(C)[C@@H]1CC[C@]2(C(=O)NO)CC[C@]3(C)[C@H](CC[C@@H]4[C@@]5(C)Cc6cn[nH]c6C(C)(C)[C@@H]5CC[C@]43C)[C@@H]12 [Compound IX, 1′H-Lup-20(29)-eno[3,2-c]pyrazol-N-hydroxy-28-amide]
[2]
  Efficacy HIF-1α (IRA coefficient): 0.34
[2]; Fibroblast
  EC50: 2.41 µM

## CC1(C)CC[C@]2(C(=O)NO)CC[C@]3(C)C(=CC[C@@H]4[C@@]5(C)CC=CC(C)(C)[C@@H]5CC[C@]43C)[C@@H]2C1 [Compound VI, Oleana-2,12-dien-N-hydroxy-28-amide]
[1]
  IC50: > 50 µM
[2]
  EC50: 5 µM
  Efficacy HIF-1α (IRA coefficient): 0.16
[3]
  EC50: > 50 µM
[4]
  IC50: > 50 µM
[5]
  IC50: > 50 µM
[6]
  EC50: > 50 µM

## CC1(C)CC[C@]2(C(=O)NO)CC[C@]3(C)C(=CC[C@@H]4[C@@]5(C)CC[C@H](O)C(C)(C)[C@@H]5CC[C@]43C)[C@@H]2C1 [Compound II, (3β) 3-Hydroxy-N-hydroxy-olean-12-en-28-amide]
[1]
  IC50: > 50 µM
[2]
  Efficacy HIF-1α (IRA coefficient): 0.39
[2]; Fibroblast
  EC50: 16.4 µM
[3]
  EC50: > 50 µM
[4]
  IC50: > 50 µM
[5]
  IC50: > 50 µM
[6]
  EC50: > 50 µM

## CC1(C)CC[C@]2(C(=O)NO)CC[C@]3(C)C(=CC(=O)[C@@H]4[C@@]5(C)CC[C@H](O)C(C)(C)[C@@H]5CC[C@]43C)[C@@H]2C1 [Compound IV, (3β) 3-Hydroxy-11-oxo-olean-12-en-N-hydroxy-28-amide]
[1]
  IC50: > 50 µM
[2]
  Efficacy HIF-1α (IRA coefficient): 0.15
[2]; Fibroblast
  EC50: 11.4 µM
[3]
  EC50: 10 µM
[4]
  IC50: > 50 µM
[5]
  IC50: > 50 µM
[6]
  EC50: > 50 µM

## CC1(C)C2CC[C@]3(C)[C@H](C(=O)C=C4[C@H]5C[C@@](C)(C(=O)NO)CC[C@]5(C)CC[C@]43C)[C@@]2(C)CC[C@@H]1O (stereo partly shown) [Compound XX, reference compound]
[2]
  activation of the EPO promoter as a surrogate marker of HIF-1α pathway activation (in words): do not activate the HIF-1α pathway
[2]; Fibroblast
  EC50: > 50 µM

## C[C@H]1[C@H](C)CC[C@]2(C(=O)NO)CC[C@]3(C)C(=CC[C@@H]4[C@@]5(C)CC[C@H](O)C(C)(C)C5CC[C@]43C)[C@H]12 (stereo partly drawn) [Compound XII, (3β) 3-Hydroxy-N-hydroxy-urs-12-en-28-amide]
[1]
  IC50: > 50 µM
[2]
  Efficacy HIF-1α (IRA coefficient): 0.17
[2]; Fibroblast
  EC50: 7.69 µM
[3]
  EC50: > 50 µM
[4]
  IC50: > 50 µM
[5]
  IC50: > 50 µM
[6]
  agonistic TGR5 activity (in words): showed agonistic TGR5 activity
  EC50: 5.91 µM

## C=C(C)[C@@H]1CC[C@]2(C(=O)O)CC[C@]3(C)[C@H](CC[C@@H]4[C@@]5(C)CC[C@H](O)C(C)(C)[C@@H]5CC[C@]43C)[C@@H]12 [Betulinic acid, reference compound]
[1]
  IC50: > 50 µM
[2]; Fibroblast
  EC50: > 50 µM
[3]
  EC50: 9.02 µM
[4]
  IC50: > 50 µM
[5]
  IC50: > 50 µM
[6]
  EC50: 22.2 µM

## C=C(C)[C@@H]1CC[C@]2(C(=O)NO)CC[C@]3(C)[C@H](CC[C@@H]4[C@@]5(C)CC=CC(C)(C)[C@@H]5CC[C@]43C)[C@@H]12 [Compound X, Lupa-2,20(29)-dien-N-hydroxy-28-amide]
[1]
  IC50: > 50 µM
[2]
  Efficacy HIF-1α (IRA coefficient): 0.48
[2]; Fibroblast
  EC50: 3.24 µM
[3]
  EC50: > 50 µM
[4]
  IC50: > 50 µM
[5]
  IC50: > 50 µM
[6]
  EC50: > 50 µM

## CC1(C)CC[C@]2(C(=O)NO)CC[C@]3(C)C(=CC[C@@H]4[C@@]5(C)C[C@@H](O)[C@H](O)C(C)(C)[C@@H]5CC[C@]43C)[C@@H]2C1 [Compound XIV, (2α,3β) 2,3-Dihydroxy-N-hydroxy-olean-12-en-28-amide]
[1]
  IC50: > 50 µM
[2]
  Efficacy HIF-1α (IRA coefficient): 0.10
[2]; Fibroblast
  EC50: 7.1 µM
[3]
  EC50: > 50 µM
[4]
  IC50: > 50 µM
[5]
  IC50: > 50 µM
[6]
  EC50: > 50 µM

## CC1(C)[C@@H](O)CC[C@]2(C)[C@H]3C(=O)C=C4[C@@H]5C[C@@](C)(C(=O)O)CC[C@]5(C)CC[C@@]4(C)[C@]3(C)CC[C@@H]12 [Glycyrrethinic acid, reference compound]
[2]
  activation of the EPO promoter as a surrogate marker of HIF-1α pathway activation (in words): do not activate the HIF-1α pathway
[2]; Fibroblast
  EC50: > 50 µM

## C[C@H]1[C@H](C)CC[C@]2(C(=O)O)CC[C@]3(C)C(=CC[C@@H]4[C@@]5(C)CC[C@H](O)C(C)(C)[C@@H]5CC[C@]43C)[C@H]12 [Ursolic acid, reference compound]
[1]
  IC50: > 50 µM
[2]
  activation of the EPO promoter as a surrogate marker of HIF-1α pathway activation (in words): None of the natural triterpenoids
[2]; Fibroblast
  EC50: > 50 µM
[3]
  EC50: 38.4 µM
[4]
  IC50: > 50 µM
[5]
  IC50: > 50 µM
